ChEMBL document CHEMBL1134853, “Essential structural factors of acetogenins, potent inhibitors of mitochondrial complex I” (Bioorg Med Chem Lett, 2002)

Molecular target: T1, NADH dehydrogenase [ubiquinone] 1 alpha subcomplex subunit 11 (Bos taurus, UniProt Q8HXG6)
T1 sequence (Q8HXG6 whole entry): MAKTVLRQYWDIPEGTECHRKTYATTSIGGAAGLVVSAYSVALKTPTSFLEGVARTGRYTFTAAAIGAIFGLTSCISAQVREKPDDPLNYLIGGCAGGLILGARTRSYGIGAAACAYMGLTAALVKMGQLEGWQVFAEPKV
Assay: Inhibitory activity against bovine heart mitochondrial NADH ubiquinone oxidoreductase (complex I)

SMILES | IC50 [nM]
C[C@H]1C=C(CCCCCCCCCCCC[C@@H](O)[C@H]2CC[C@H]([C@H]3CC[C@H]([C@@H](C)O)O3)O2)C(=O)O1 | 3.1
CCCCCCCCCC[C@@H](O)[C@H]1CC[C@H]([C@H]2CC[C@H]([C@H](O)CCCCCCCCCCCCC3=C[C@H](C)OC3=O)O2)O1 [ISODESAACETYLUVARICIN] | 0.9
